Results published in EP0684822B1, “CARBOCYCLIC DEOXYGUANOSINE ANALOGS FOR THE TREATMENT OF VIRAL INFECTIONS” (SOUTHERN RESEARCH INSTITUTE, priority 1993, dated 1994).

Tests used:
DNA polymerase α = target: T1, DNA polymerase α (Homo sapiens, UniProt P09884); test: Inhibition of [3H]dGTP incorporation into DNA by host DNA polymerase α; type: biochemical; conditions: for IC50: incorporation of 1 µM [3H]dGTP into DNA
T1 construct: Human DNA polymerases, a, β, and γ, were purified from 5.0 ml of packed K562 cells; endogenous in cells; host or cells: K562 cells
Experimental: (§1) HSV DNA polymerase was purified from H.Ep.-2 cells infected with HSV-1. Approximately 4 x 10^8 cells were infected with virus at a multiplicity of infection of 10 CCID50/cell. After a 1 hr adsorption period, the unattached virus was waxhed from the cells and the cultures were returned to the incubator at 37°C for another 8 hr. The cells were collected by centrifugation and mixed with a 0.3 M potassium phosphate buffer, pH 7.5, containing 0.3% Triton X-100 and 10% glycerol. The HSV DNA polymerase was purified approximately 288-fold from this crude extract, as described by Derse et al. (J. Biol. Chem. 257:10251, 1982). The specific activity of the HSV DNA polymerase was 4140 units/mg protein. Human DNA polymerases, a, β, and γ, were purified from 5.0 ml of packed K562 cells grown in cell culture as previously described (Parker et al., J. Biol. Chem. 266:1754, 1991). The specific activities of DNA polymerases α, β, and γ used in these studies were approximately 34, 1600, and 8 units/mg protein, respectively. One unit of enzyme activity is defined as the amount of enzyme needed to incorporate 1 nmol of [^3H]dGTP into acid-precipitable material per hour at 37°C, using gapped DNA as a template. HSV DNA polymerase activity was measured in 50 µl volumes containing 50 mM Tris, pH 8.0, 3 mM MgCl2, 0.5 mM dithiothreitol, 0.2 mg/ml bovine serum albumin, 0.2 M KCl, 12.5 µg/ml gapped DNA, 10 µM [^3H]dGTP (12 Ci/mmol), and 100 µM each of dATP, dCTP, and TTP. DNA polymerase α activity was measured in 50 µl volumes containing 50 mM Tris, pH 8.0, 1 mg/ml bovine serum albumin, 10 mM MgCl2, 1 mM dithiothreitol, 100 µg/ml gapped duplex DNA, 10 µM [^3H]dGTP (1 Ci/mmol), and 50 µM of each dATP, dCTP and TTP. DNA polymerase β and γ activities were measured as described for DNA polymerase α, except that the reactions included 100 mM KCl. After incubation for the desired time, the DNA in each sample was precipitated onto glass fiber filters using a 5% trichloroacetic acid solution containing 10 mM pyrophosphate. The filters were then washed three times with this solution followed by two washes with 95% ethanol, dried, and counted for radioactivity.
(§2) 2'CdG-TP was a potent competitive inhibitor of the incorporation of [^3H]dGTP into DNA by both the HSV DNA polymerase and the host DNA polymerase α (Fig. 9).
(§3) Under similar incubation conditions, the concentration of D-2'CdG-TP required to inhibit the incorporation of 1 µM [^3H]dGTP into the DNA by 50% was 2 µM with DNA polymerase a, but was 2200 and 300 µM for DNA polymerase β and γ, respectively (Table 4). […]

HSV DNA polymerase = target: T2, HSV DNA polymerase (Human herpesvirus 1, UniProt P04293); test: Inhibition of [3H]dGTP incorporation into DNA by purified HSV DNA polymerase; type: biochemical, HSV-1; conditions: for IC50: incorporation of 1 µM [3H]dGTP into DNA
T2 construct: HSV DNA polymerase was purified from H.Ep.-2 cells infected with HSV-1; made in house; host or cells: H.Ep.-2 cells infected with HSV-1
Experimental: as §1, §2, §3

DNA polymerase γ = target: T3, DNA polymerase γ (Homo sapiens, UniProt P54098); test: Inhibition of [3H]dGTP incorporation into DNA by DNA polymerase γ; type: biochemical; conditions: incorporation of 1 µM [3H]dGTP into DNA
T3 sequence (P54098 26-1239): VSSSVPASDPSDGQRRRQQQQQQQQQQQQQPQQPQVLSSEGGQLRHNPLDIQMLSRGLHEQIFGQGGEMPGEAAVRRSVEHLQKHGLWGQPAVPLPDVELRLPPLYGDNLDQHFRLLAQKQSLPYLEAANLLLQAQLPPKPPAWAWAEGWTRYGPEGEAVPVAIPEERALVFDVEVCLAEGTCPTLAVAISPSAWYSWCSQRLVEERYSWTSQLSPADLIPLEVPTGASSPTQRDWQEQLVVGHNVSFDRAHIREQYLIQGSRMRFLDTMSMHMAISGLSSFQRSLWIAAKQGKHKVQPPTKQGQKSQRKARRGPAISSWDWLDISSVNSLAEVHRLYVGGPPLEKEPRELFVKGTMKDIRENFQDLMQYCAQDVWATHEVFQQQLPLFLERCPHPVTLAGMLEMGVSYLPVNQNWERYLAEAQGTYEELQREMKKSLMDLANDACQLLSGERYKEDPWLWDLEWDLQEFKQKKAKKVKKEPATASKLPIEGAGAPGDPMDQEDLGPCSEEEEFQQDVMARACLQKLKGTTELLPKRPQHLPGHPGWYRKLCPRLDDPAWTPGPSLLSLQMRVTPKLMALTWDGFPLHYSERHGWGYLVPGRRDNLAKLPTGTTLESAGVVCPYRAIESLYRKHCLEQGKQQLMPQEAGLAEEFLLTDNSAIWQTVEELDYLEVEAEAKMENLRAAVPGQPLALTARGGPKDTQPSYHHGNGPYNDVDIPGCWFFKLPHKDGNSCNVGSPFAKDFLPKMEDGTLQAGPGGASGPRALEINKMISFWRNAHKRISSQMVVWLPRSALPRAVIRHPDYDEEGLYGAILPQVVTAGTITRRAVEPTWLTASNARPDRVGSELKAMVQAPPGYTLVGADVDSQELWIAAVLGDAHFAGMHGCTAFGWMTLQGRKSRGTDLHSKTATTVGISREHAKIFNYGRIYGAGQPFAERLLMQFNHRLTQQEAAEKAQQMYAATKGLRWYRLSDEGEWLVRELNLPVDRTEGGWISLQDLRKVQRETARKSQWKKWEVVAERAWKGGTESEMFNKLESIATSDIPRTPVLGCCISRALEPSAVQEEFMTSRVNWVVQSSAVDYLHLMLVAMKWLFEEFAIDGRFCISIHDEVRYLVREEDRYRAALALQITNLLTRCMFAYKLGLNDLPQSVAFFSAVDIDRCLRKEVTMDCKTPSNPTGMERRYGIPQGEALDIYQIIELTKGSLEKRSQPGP
T3 sequence (Q9UHN1 26-485 partner): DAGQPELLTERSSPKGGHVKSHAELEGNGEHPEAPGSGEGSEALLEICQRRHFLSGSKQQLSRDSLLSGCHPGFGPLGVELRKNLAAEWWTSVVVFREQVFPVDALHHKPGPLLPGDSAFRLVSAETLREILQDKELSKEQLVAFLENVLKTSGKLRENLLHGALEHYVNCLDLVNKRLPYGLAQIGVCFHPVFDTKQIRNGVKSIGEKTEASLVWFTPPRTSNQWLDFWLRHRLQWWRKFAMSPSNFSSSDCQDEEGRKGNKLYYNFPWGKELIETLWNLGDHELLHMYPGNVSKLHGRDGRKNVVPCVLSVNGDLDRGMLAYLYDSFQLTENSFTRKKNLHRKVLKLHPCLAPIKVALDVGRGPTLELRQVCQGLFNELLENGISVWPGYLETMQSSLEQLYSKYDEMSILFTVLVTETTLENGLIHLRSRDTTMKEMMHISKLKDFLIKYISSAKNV
Experimental: (§4) HSV DNA polymerase was purified from H.Ep.-2 cells infected with HSV-1. Approximately 4 x 10^8 cells were infected with virus at a multiplicity of infection of 10 CCID50/cell. After a 1 hr adsorption period, the unattached virus was waxhed from the cells and the cultures were returned to the incubator at 37°C for another 8 hr. The cells were collected by centrifugation and mixed with a 0.3 M potassium phosphate buffer, pH 7.5, containing 0.3% Triton X-100 and 10% glycerol. The HSV DNA polymerase was purified approximately 288-fold from this crude extract, as described by Derse et al. (J. Biol. Chem. 257:10251, 1982). The specific activity of the HSV DNA polymerase was 4140 units/mg protein. […] HSV DNA polymerase activity was measured in 50 µl volumes containing 50 mM Tris, pH 8.0, 3 mM MgCl2, 0.5 mM dithiothreitol, 0.2 mg/ml bovine serum albumin, 0.2 M KCl, 12.5 µg/ml gapped DNA, 10 µM [^3H]dGTP (12 Ci/mmol), and 100 µM each of dATP, dCTP, and TTP. DNA polymerase α activity was measured in 50 µl volumes containing 50 mM Tris, pH 8.0, 1 mg/ml bovine serum albumin, 10 mM MgCl2, 1 mM dithiothreitol, 100 µg/ml gapped duplex DNA, 10 µM [^3H]dGTP (1 Ci/mmol), and 50 µM of each dATP, dCTP and TTP. DNA polymerase β and γ activities were measured as described for DNA polymerase α, except that the reactions included 100 mM KCl. […]

DNA polymerase β = target: T4, DNA polymerase β (Homo sapiens, UniProt P06746); test: Inhibition of [3H]dGTP incorporation into DNA by DNA polymerase β; type: biochemical; conditions: incorporation of 1 µM [3H]dGTP into DNA
T4 construct: Human DNA polymerases, a, β, and γ, were purified from 5.0 ml of packed K562 cells; endogenous in cells; host or cells: K562 cells
Experimental: as §4

T1 sequence (P09884 whole entry): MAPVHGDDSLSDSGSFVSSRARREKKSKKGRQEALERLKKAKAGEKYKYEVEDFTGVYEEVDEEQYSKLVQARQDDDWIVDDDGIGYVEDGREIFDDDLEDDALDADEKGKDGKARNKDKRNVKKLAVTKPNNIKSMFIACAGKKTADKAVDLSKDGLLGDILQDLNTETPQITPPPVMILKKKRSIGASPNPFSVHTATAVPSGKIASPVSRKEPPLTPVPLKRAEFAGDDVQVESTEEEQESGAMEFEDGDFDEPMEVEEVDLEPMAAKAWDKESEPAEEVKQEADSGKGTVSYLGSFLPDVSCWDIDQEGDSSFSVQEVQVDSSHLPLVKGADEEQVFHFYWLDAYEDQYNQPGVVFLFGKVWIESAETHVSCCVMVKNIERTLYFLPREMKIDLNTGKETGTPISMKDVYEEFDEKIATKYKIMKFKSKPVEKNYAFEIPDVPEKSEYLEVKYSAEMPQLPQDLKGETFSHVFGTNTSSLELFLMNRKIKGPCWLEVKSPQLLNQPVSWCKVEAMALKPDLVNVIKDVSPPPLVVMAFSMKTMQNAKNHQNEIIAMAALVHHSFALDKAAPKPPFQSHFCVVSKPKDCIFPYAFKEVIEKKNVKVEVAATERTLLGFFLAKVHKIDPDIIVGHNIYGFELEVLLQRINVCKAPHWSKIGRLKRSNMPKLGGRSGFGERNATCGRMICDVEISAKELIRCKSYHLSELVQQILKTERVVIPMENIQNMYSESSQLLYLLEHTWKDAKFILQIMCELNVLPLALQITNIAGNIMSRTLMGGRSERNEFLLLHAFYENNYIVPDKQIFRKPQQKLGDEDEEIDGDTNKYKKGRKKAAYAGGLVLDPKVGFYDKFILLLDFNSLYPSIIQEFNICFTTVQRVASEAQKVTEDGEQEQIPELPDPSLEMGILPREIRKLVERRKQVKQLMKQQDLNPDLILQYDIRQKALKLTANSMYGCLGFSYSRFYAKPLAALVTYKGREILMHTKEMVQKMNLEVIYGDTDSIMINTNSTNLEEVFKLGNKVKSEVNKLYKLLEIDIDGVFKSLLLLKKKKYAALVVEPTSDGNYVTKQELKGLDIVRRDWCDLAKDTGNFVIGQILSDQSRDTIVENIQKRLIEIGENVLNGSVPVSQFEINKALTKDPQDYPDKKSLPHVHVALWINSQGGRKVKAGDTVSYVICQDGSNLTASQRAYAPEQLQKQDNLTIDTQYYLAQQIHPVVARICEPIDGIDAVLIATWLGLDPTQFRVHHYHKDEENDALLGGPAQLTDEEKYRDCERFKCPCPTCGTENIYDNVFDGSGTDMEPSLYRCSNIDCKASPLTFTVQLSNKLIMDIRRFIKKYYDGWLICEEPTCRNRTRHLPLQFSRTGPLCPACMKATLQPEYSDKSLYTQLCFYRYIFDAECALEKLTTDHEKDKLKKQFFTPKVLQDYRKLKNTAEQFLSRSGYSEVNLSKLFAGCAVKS
T1 sequence (Q14181 whole entry partner): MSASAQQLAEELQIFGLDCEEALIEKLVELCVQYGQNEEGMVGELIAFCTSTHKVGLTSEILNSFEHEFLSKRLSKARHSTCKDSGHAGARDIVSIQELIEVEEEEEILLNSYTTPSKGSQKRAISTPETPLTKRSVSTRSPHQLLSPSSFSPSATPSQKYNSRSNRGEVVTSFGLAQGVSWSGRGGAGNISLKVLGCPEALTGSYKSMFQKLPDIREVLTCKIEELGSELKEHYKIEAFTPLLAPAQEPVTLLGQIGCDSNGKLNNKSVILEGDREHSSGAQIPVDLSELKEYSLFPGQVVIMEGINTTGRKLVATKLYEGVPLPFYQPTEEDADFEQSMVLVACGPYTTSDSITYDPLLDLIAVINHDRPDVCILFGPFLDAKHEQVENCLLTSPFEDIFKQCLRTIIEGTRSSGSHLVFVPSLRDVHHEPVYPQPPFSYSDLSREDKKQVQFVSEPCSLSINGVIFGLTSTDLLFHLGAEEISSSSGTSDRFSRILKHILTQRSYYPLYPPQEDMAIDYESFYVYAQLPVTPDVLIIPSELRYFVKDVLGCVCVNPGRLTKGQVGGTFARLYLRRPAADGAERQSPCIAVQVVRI
T1 sequence (P49642 whole entry partner): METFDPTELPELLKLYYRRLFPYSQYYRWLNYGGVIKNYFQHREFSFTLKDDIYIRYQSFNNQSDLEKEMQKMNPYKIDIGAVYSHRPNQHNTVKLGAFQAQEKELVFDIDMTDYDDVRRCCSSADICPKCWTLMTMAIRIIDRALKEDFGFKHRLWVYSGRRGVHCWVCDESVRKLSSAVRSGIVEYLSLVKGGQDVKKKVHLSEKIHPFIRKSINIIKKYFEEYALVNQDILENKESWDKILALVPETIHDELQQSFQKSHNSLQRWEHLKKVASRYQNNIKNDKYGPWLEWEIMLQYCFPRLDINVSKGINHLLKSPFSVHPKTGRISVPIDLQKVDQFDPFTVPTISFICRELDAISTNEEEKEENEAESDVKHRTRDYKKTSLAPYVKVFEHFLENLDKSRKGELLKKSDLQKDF
T1 sequence (P49643 whole entry partner): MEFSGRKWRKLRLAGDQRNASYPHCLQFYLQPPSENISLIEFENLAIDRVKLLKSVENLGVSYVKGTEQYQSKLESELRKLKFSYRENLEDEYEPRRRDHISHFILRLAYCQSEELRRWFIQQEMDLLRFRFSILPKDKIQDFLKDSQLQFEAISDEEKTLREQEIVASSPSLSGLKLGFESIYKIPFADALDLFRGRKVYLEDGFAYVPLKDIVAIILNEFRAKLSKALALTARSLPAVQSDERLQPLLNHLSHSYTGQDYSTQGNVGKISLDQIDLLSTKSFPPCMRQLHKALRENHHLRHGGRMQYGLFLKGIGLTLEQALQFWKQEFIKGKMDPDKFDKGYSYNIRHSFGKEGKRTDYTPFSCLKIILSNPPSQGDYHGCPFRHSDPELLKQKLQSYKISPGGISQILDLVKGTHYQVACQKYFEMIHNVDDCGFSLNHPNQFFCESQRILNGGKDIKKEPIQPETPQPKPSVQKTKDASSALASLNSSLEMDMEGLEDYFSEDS
T2 sequence (P10226 whole entry): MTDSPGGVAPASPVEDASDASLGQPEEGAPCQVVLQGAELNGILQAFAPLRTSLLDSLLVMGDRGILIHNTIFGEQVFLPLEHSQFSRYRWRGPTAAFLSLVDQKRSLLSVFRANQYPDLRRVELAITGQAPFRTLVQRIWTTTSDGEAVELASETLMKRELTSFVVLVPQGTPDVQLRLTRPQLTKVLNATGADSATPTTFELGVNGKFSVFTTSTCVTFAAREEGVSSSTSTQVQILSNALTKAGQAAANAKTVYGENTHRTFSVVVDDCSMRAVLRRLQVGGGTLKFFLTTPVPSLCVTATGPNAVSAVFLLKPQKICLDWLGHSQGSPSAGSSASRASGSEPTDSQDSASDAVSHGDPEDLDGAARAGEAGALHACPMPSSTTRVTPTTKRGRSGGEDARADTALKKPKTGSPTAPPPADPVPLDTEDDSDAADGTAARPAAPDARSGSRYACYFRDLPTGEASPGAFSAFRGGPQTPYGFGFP
T2 sequence (P04293 whole entry): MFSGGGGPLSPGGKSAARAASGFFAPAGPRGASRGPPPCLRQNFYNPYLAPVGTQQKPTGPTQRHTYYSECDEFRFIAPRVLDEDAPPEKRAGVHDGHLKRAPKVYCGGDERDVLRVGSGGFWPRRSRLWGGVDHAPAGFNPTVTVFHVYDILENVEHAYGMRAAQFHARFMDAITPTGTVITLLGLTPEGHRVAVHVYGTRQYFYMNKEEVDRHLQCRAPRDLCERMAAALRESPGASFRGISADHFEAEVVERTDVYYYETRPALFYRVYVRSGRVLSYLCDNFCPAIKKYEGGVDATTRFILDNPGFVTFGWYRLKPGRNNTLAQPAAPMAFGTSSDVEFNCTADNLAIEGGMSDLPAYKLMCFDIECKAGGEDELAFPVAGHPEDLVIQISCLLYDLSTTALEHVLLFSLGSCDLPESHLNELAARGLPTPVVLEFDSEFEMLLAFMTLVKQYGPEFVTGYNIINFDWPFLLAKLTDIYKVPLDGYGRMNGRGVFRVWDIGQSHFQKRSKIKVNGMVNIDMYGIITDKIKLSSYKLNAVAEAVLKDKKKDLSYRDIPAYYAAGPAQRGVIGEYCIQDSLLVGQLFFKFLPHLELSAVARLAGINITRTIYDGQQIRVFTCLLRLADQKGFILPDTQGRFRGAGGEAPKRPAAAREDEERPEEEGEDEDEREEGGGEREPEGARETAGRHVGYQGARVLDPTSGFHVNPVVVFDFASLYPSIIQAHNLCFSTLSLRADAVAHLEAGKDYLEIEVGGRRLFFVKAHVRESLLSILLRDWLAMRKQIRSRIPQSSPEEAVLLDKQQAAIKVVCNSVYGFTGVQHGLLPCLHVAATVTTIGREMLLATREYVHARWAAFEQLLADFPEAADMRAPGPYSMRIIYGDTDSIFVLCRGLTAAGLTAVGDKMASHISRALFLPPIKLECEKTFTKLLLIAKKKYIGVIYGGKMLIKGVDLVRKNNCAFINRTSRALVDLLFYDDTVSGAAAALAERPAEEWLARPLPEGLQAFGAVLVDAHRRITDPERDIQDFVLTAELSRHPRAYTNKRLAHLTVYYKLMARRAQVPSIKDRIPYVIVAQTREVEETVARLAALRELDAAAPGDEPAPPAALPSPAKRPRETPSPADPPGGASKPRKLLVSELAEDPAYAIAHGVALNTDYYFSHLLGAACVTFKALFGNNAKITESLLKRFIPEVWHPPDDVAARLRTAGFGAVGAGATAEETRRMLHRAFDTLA

| SMILES | Ki/Km ratio (DNA polymerase α; Km of dGTP) | Ki (DNA polymerase α; competitive with [3H]dGTP) [µM] | IC50 (DNA polymerase α) [µM] | Ki/Km ratio (HSV DNA polymerase; Km of dGTP) | Ki (HSV DNA polymerase; competitive with [3H]dGTP) [µM] | IC50 (HSV DNA polymerase) [µM] | IC50 (DNA polymerase γ) [µM] | IC50 (DNA polymerase β) [µM] |
| --- | --- | --- | --- | --- | --- | --- | --- | --- |
| Nc1nc2c(ncn2[C@@H]2C[C@H](COP(=O)(O)OP(=O)(O)OP(=O)(O)O)[C@@H](O)C2)c(=O)[nH]1 [D-2'CdG-TP] | approximately 1 | 0.95 | 2 | approximately 1 | 0.35 | 1.5 | 300 | – |
| Nc1nc2c(ncn2[C@H]2C[C@@H](COP(=O)(O)OP(=O)(O)OP(=O)(O)O)[C@H](O)C2)c(=O)[nH]1 [L-2'CdG-TP] | – | – | 470 | – | – | 460 | 215 | 1400 |
